From PubChem BioAssay (NCI)
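Where inhibition never reached the appropriate level, the endpoint shown equals the highest concentration tested. Otherwise, values were interpolated linearly from a five-concentration, 48-hour dose response in 96-well plates. TGI is the concentration that stops growth completely.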

Key:
Test in all cases: NCI anticancer screen, dose series, 48 h
[1] = tested on: RXF 393 renal
[2] = tested on: MDA-N
[3] = tested on: 786-0 renal
[4] = tested on: CAKI-1 renal
[5] = tested on: K-562 leukemia
[6] = tested on: SF-295 CNS
[7] = tested on: SK-OV-3 ovarian
[8] = tested on: SK-MEL-5 melanoma
[9] = tested on: M14 melanoma
[10] = tested on: SNB-75 CNS
[11] = tested on: MCF7 breast
[12] = tested on: HCT-15 colon
[13] = tested on: UACC-62 melanoma
[14] = tested on: SK-MEL-28 melanoma
[15] = tested on: NCI/ADR-RES ovarian
[16] = tested on: U251 CNS
[17] = tested on: MALME-3M melanoma
[18] = tested on: OVCAR-3 ovarian
[19] = tested on: BT-549 breast
[20] = tested on: NCI-H460 lung
[21] = tested on: UO-31 renal
[22] = tested on: SR leukemia
[23] = tested on: COLO 205 colon
[24] = tested on: MDA-MB-231 breast
[25] = tested on: HOP-62 NSCLC
[26] = tested on: MDA-MB-435
[27] = tested on: SK-MEL-2 melanoma
[28] = tested on: HT29 colon
[29] = tested on: DU-145 prostate
[30] = tested on: SW-620 colon
[31] = tested on: A549 NSCLC
[32] = tested on: UACC-257 melanoma
[33] = tested on: SF-539 CNS
[34] = tested on: T-47D breast
[35] = tested on: ACHN renal
[36] = tested on: SNB-19 CNS
[37] = tested on: LOX IMVI melanoma
[38] = tested on: RPMI-8226 leukemia
[39] = tested on: HCT-116 colon
[40] = tested on: IGROV1 ovarian
[41] = tested on: KM12 colon
[42] = tested on: HOP-92 NSCLC
[43] = tested on: A498 renal
[44] = tested on: MOLT-4 leukemia
[45] = tested on: OVCAR-8 ovarian
[46] = tested on: PC-3 prostate
[47] = tested on: NCI-H226 lung
[48] = tested on: OVCAR-5 ovarian
[49] = tested on: NCI-H522 lung
[50] = tested on: SN12C renal
[51] = tested on: HS 578T breast
[52] = tested on: EKVX NSCLC
[53] = tested on: NCI-H23 lung
[54] = tested on: SF-268 CNS
[55] = tested on: HL-60(TB) leukemia
[56] = tested on: TK-10 renal
[57] = tested on: HCC-2998 colon
[58] = tested on: OVCAR-4 ovarian
[59] = tested on: CCRF-CEM leukemia

Which results are given for `COc1cc(CSc2ccc(O)cc2)cc(OC)c1OC`?
TGI [1]: > 100 µM; TGI [2]: > 100 µM; TGI [3]: > 100 µM; TGI [4]: > 100 µM; TGI [5]: > 100 µM; TGI [6]: 95 µM; TGI [7]: > 100 µM; TGI [8]: 34.9 µM; TGI [9]: > 100 µM; TGI [10]: 86.2 µM; TGI [11]: 66.6 µM; TGI [12]: > 100 µM; TGI [13]: > 100 µM; TGI [14]: > 100 µM; TGI [15]: 83.6 µM; TGI [16]: > 100 µM; TGI [17]: > 100 µM; TGI [18]: > 100 µM; TGI [19]: 48.3 µM; TGI [20]: > 100 µM; TGI [21]: 52 µM; TGI [22]: > 100 µM; TGI [23]: > 100 µM; TGI [24]: > 100 µM; TGI [25]: > 100 µM; TGI [26]: > 100 µM; TGI [27]: 67 µM; TGI [28]: > 100 µM; TGI [29]: > 100 µM; TGI [30]: > 100 µM; TGI [31]: > 100 µM; TGI [32]: > 100 µM; TGI [33]: > 100 µM; TGI [34]: 55.5 µM; TGI [35]: > 100 µM; TGI [36]: > 100 µM; TGI [37]: > 100 µM; TGI [38]: 66.1 µM; TGI [39]: > 100 µM; TGI [40]: > 100 µM; TGI [41]: > 100 µM; TGI [42]: 71.3 µM; TGI [43]: > 100 µM; TGI [44]: > 100 µM; TGI [45]: > 100 µM; TGI [46]: > 100 µM; TGI [47]: > 100 µM; TGI [48]: > 100 µM; TGI [49]: > 100 µM; TGI [50]: > 100 µM; TGI [51]: > 100 µM; TGI [52]: > 100 µM; TGI [53]: > 100 µM; TGI [54]: > 100 µM; TGI [55]: > 100 µM; TGI [56]: > 100 µM

Which results are given for `CSc1nc(C)cc(Nc2ccc(O)c(CN3CCOCC3)c2)n1`?
TGI [1]: > 100 µM; TGI [2]: > 100 µM; TGI [3]: > 100 µM; TGI [4]: > 100 µM; TGI [5]: > 100 µM; TGI [6]: > 100 µM; TGI [7]: > 100 µM; TGI [8]: > 100 µM; TGI [9]: > 100 µM; TGI [10]: > 100 µM; TGI [11]: > 100 µM; TGI [12]: > 100 µM; TGI [13]: > 100 µM; TGI [14]: > 100 µM; TGI [15]: > 100 µM; TGI [16]: > 100 µM; TGI [17]: > 100 µM; TGI [18]: > 100 µM; TGI [19]: > 100 µM; TGI [20]: > 100 µM; TGI [21]: > 100 µM; TGI [22]: > 100 µM; TGI [23]: > 100 µM; TGI [24]: > 100 µM; TGI [25]: > 100 µM; TGI [26]: > 100 µM; TGI [27]: > 100 µM; TGI [28]: > 100 µM; TGI [29]: > 100 µM; TGI [30]: > 100 µM; TGI [31]: > 100 µM; TGI [32]: > 100 µM; TGI [33]: > 100 µM; TGI [34]: > 100 µM; TGI [57]: > 100 µM; TGI [35]: > 100 µM; TGI [36]: > 100 µM; TGI [37]: > 100 µM; TGI [38]: > 100 µM; TGI [39]: > 100 µM; TGI [40]: > 100 µM; TGI [41]: > 100 µM; TGI [42]: > 100 µM; TGI [43]: > 100 µM; TGI [44]: > 100 µM; TGI [45]: > 100 µM; TGI [58]: > 100 µM; TGI [46]: > 100 µM; TGI [47]: > 100 µM; TGI [48]: > 100 µM; TGI [49]: > 100 µM; TGI [50]: > 100 µM; TGI [51]: > 100 µM; TGI [52]: > 100 µM; TGI [53]: > 100 µM; TGI [59]: > 100 µM; TGI [54]: > 100 µM; TGI [55]: > 100 µM; TGI [56]: > 100 µM
